What is called Km is the substrate concentration at which the rate is half of its maximum.

Type in all cases: biochemical, Lithobates sylvaticus
The test system of assay [1] is T1, muscle LDH, control (control LDH).
T1 construct: gene LDHA
The assay is described as follows: NADH production at […] nm, reverse reaction. To be noted: pH 8, 22 °C, 50 mM Tris.

Assay [2] concerns T2, muscle LDH, dehydrated (dehydrated LDH).
T2 construct: gene LDHA
The assay is described as follows: NADH production at […] nm, reverse reaction. As to conditions: pH 8, 22 °C, 50 mM Tris.

Assay [3] has as its system T1, muscle LDH, control (control LDH). The assay is described as follows: NADH consumption at […] nm, forward reaction. As to conditions: pH 7, 22 °C, 50 mM Tris, saturating NADH (0.15 mM).
Assay [4] has the same test system. The assay is described as follows: NADH absorbance at […] nm, forward reaction. As to conditions: pH 7.0, 22 °C, 50 mM Tris, saturating NADH (0.15 mM); inhibition by excess substrate.
In assay [5] the test system is T2, muscle LDH, dehydrated (dehydrated LDH). Description: NADH absorbance at […] nm, forward reaction. To be noted: pH 7.0, 22 °C, 50 mM Tris, saturating NADH (0.15 mM); inhibition by excess substrate.
Assay [6] shares this test system. Description: NADH consumption at […] nm, forward reaction. To be noted: pH 7, 22 °C, 50 mM Tris, saturating NADH (0.15 mM).

With `NC(=O)c1ccc[n+]([C@@H]2O[C@H](COP(=O)(O)OP(=O)(O)OC[C@H]3O[C@@H](n4cnc5c(N)ncnc54)[C@H](O)[C@@H]3O)[C@@H](O)[C@H]2O)c1` [NAD], the Km was determined as 1380 ± 50 µM in assay [1] (saturating L-lactate (22.5 mM)) and 640 ± 40 µM in assay [2] (saturating L-lactate (22.5 mM)).
`CC(=O)C(=O)O` [pyruvate]: the Km in assay [3] was found to be 160 ± 10 µM; in assay [6], 130 ± 10 µM. The Control in assay [4] is 7.93 ± 0.34 mM. The same compound showed a Dehydrated in assay [5] of 8.26 ± 0.76 mM.
Take `C[C@H](O)C(=O)O` [L-lactate]: the Km in assay [1] (saturating NAD (1 mM)) came to 11000 ± 640 µM; in assay [2] (saturating NAD (1 mM)), 5600 ± 500 µM.

These data come from PMC3628601, “Novel control of lactate dehydrogenase from the freeze tolerant wood frog: role of posttranslational modifications” (PeerJ, 2013).
